Results on four molecules are retold here after patent publication US6180669A, “Method for treatment of dermatological disorders” (priority 1999, dated 2001).

Data set [1] concerns keratinocytes. As to conditions: Passi et al.; cited from earlier work.
For data set [2], the system named is acne. As to conditions: 20% preparation, twice daily; Fitton and Goa; cited from earlier work.
For data set [3], the system named is sebaceous glands. The settings on record: topical, literature, cited from earlier work.
Data set [4] deals with human keratinocytes. Nature of the data set: Cell proliferation assay. In kind it is cell-based. The settings on record: for IC50: Homo sapiens; for potency in inhibiting cell proliferation (in words): in vitro, keratinocytes. On the procedure:
Modulation of keratinocyte proliferation.
Cell proliferation assay.
50,000 human keratinocytes from secondary culture were seeded into 24 well plates, in 1 ml DMEM-F12 medium (Green H. (1978) Cell 15:801-805) with growth factors and 10% Fetal Calf Serum. The cells were incubated at 37° C. in 5% CO2 until 30-40% confluency was reached and then the various test materials, dissolved in ethanol, were added in volumes of 0.1-20 μl, to final volume of 0.5 ml. The same volumes of ethanol were added to control cultures, for comparative values of ethanol cytotoxicity. No apparent cytotoxicity was found up to 40 μl ml ethanol. The medium was replaced with fresh medium prior to addition of the test materials. The cultures were further incubated for 3 days at 37° C. and 5% CO2 and then washed with phosphate buffered saline (PBS). Cell numbers were determined using two methods: 1) trypsinization, followed by cell counting; and 2) fixation of the culture with p-formaldehyde 2% in PBS and methylene blue staining, followed by extraction of color and optical density measurement at 650 nm. Both methods were found in good correlation, so that 1 OD unit corresponded to 1,000,000 cells. IC50, i.e., the concentration that caused 50% inhibition of cell proliferation for each of the test materials is presented in Table 1.

A short description of data set [5]: in vitro. As to conditions: human, keratinocytes. On the procedure: The direct effect of the compounds of the invention on the proliferation of human keratinocytes was assessed in vitro using a keratinocyte cell line.
Modulation of keratinocyte proliferation. The effect of di(ethyl salycilate)azelate and di-retinyl azelate on cell proliferation and cell viability was tested in vitro using human keratinocyte culture system.
Keratinocyte cells, as above, were allowed to proliferate in medium, without the test materials, up to 100% confluency, with one exchange of medium during growth. Confluent cultures were incubated with increasing concentrations of the test materials in ethanol for three days at 37° C. and 5% CO2. At the end of the incubation period the cultures were washed with PBS and measured for remaining attached cells using the above described methods.

In data set [6] the test system is reduction of testosterone to dihydrotestosterone. The settings on record: literature; cited from earlier work.
Data set [7] has as its system culicoides hypersensitivity. The data set can be described thus: Effect on culicoides hypersensitivity in horses. In kind it is in vivo, horse. As to conditions: 5% alcoholic solution, topically twice daily for two weeks. On the procedure:
Prior to treatment, the horses had typical occurrence of the disease, including localized dermatitis affecting the mane and poll and the root of the tail. FIG. 1 is a photograph of the mane area of a horse afflicted by culicoides hypersensitivity. […] The skin at the affected areas looked hairless, ridged and scaly. The shoulder area and hind quarters were also affected. The horses were treated topically with a 5% alcoholic solution of di(ethyl salicylate) azelate, twice daily for two weeks.
The effect of di(ethyl salicylate) azelate on culicoides hypersensitivity was tested in two horses with colicoides hypersensitivity. Prior to treatment, both horses had typical occurrence of the disease, including localized dermatitis affecting the mane and poll and the root of the tail. The shoulder area and hind quarters were also affected. The skin at the affected areas looked hairless, ridged and scaly. The horses were treated topically with a 5% alcoholic solution of di(ethyl salicylate)azelate, twice daily for two weeks. […] As clearly seen in the pictures, hair seemed to regrow and the skin looked healthy. This improvement persisted throughout 14 days of treatment and observation.

Data set [8] has as its system skin of rabbits. Nature of the data set: Acute dermal toxicity/irritation test (modified Draise). In kind it is in vivo, rabbit. As to conditions: 10% and 20%, 0.5 ml, 24 h application, observed 1, 24 and 72 h after removal. On the procedure: These findings emphasize a distinct advantage of di(ethyl salicylate)azelate over its parent components.
Acute dermal toxicity/irritation test. The purpose of this study was to evaluate the acute potential dermal irritation effect on skin following the topical application of di(ethyl salicylate) azelate, in rabbits. This test is a modified version of the original Draise method, as described in OECD guidelines. 0.5 ml of either di(ethyl salicylate)azelate (10% or 20%, dissolved in PEG-400/ethanol 1:1) or the vehicle alone were applied to the skin of three rabbits for 24 hours. Rabbits were examined for signs of skin irritation 1, 24 and 72 hours after the removal of the test solutions. […] Based on the current protocol it was concluded that di(ethyl salicylate) azelate is a non-irritant agent.

For data set [9], the system named is skin oiliness of forehead. The data set can be described thus: Sebolytic effect (skin oiliness of forehead, Skin Tester). In kind it is in vivo, human. The settings on record: lotion of Example 5, twice daily, 14 days; prior to treatment 223 units. On the procedure: Following fourteen days of topical treatment, the skin oiliness of the forehead of a human volunteer, tested using a photometric instrument was reduced from 223 units (resembling "oily skin") to 205 units (normal skin value).
Sebolytic effect of di(ethyl salicylate)azelate. […] Skin oiliness was tested using "Skin Tester, Model STC20" (IMS Ltd., Haifa, Israel) prior to treatment and 14 days thereafter. Prior to treatment, the sebum value was 223 units, typical of oily skin. The sebum value after two weeks of treatment was 205 units, corresponding to normal skin.

Data set [10] has as its system chin acne; furunculosis (eczema). The data set can be described thus: Anti-acne and anti-inflammatory effect in cats (chin acne, furunculosis). In kind it is in vivo, cat. As to conditions: 5% alcoholic solution, twice daily for 14 days. As for the experimental part:
The compounds of the present invention have been shown in animals to alleviate the symptoms of acne. Four cats with persistant chin acne were treated twice daily for 14 days with 5% alcoholic solution of di(ethyl salicylate) azelate. […] The skin lesions disappeared and the bald areas were covered with new hair.
Anti-acne and anti-inflammatory effect of di(ethyl salicylate) azelate. Four cats were admitted to the veterinary clinic with skin lesions identified as chin acne. One additional cat had localized furunculosis (eczema) on the chin. The area of the skin lesions was 1-4 cm^2 at baseline. All animals were previously treated with either benzoyl peroxide or topical steroids with no response. Cats were treated twice daily for 14 days with a 5% alcoholic solution of di(ethyl salicylate) azelate.

Data set [11] deals with comedones, rabbit ear acne model. The data set can be described thus: Efficacy in the rabbit ear acne model (comedolytic effect). In kind it is in vivo. On the procedure: See, Lee, et al. Kor. J. Dermatol. 28(5):543-549 (1990).
Efficacy of di(ethyl salicylate)azelate (10%) in the rabbit ear acne model. Three mature male albino rabbits were treated as follows. The external ear canals on both ears were treated once daily for five weekdays for three weeks with 1% crude coal tar in Hydrophilic Ointment USP. Then one ear was treated with antiacne lotion of Example 4 once daily for five weekdays for three weeks while the opposite ear served as an untreated control. Excision biopsies were taken from both sides at the end of three weeks of treatment. […] These were judged to be moderate examples of comedones with distortion of the follicular infundibulum by dense horn.

Data set [12] has as its system skin of a human subject. Nature of the data set: Human skin irritation test. In kind it is in vivo. As to conditions: 48 h application, 0.1 ml; observed upon removal and 1, 24, 48 h later; ester 20%; mixture 7.5% azelaic acid + 11% salicylic acid. On the procedure: Human skin irritation test. The following lotions (0.1 ml) were applied to the skin of a human subject for 48 hours, using standard skin irritation test chambers (0.64 sq. cm.):
(1) 20% di(ethyl salicylate)azelate (400 mmole/ml), dissolved in PEG-400/ethanol 1:1;
(2) mixture of 7.5% azelaic acid (400 mmole/ml) and 11% salicylic acid (800 mmole/ml), dissolved in PEG-400/ethanol 1:1; and
(3) PEG-400/ethanol 1:1 (placebo).

[13] abbreviates: Keratinocyte, 72 h, 3 days incubation, 50% inhibition of cell proliferation, Table 1, read-out: IC50 (inhibitory concentration).
Setting [14] is: keratinocyte cell line, read-out: inhibitory concentration, cell proliferation.
Setting [15] is: cytotoxic concentrations higher than inhibitory concentrations.
The mark [16] stands for this setting: listed as di(ethyl salicylate) azelate.

Molecules are shown by their SMILES. “Also recorded” adds a separate entry of the source. Read-outs that look alike come from different tables or passages of the source.

As to `O=C(O)CCCCCCCC(=O)O` [Azelaic acid, reference compound], in data set [1], the effect on keratinocytes entry was “antiproliferative effects on keratinocytes”. In addition, in data set [2], the “time of topical application until effective in acne” value was 3-6 months. The “skin oiliness / sebum composition, sebum excretion rate, size of sebaceous glands” value in data set [3] was “can not alter skin oiliness”; in data set [3] (listed as AZA) it was “failed to induce specific changes in sebum composition, sebum excretion rate and the size of sebaceous glands”. Moreover, the IC50 worked out at 1500 µM in data set [4] (setting [13]) and 1000 µM in data set [4] (setting [14]). For the same molecule, in data set [5], the CC50 at 72 h is 4000 µM. Also, the selectivity ratio worked out at 2.6 in [5] (Safety factor (CD50/ID50)) and 2.6 in data set [5] (cytotoxic concentration, times higher than inhibitory concentration). For the same molecule, the “inhibition of testosterone reduction to dihydrotestosterone” value in data set [6] is given as “competitive inhibitor of the reduction of testosterone to dihydrotestosterone”.

For `CC1=C(/C=C/C(C)=C/C=C/C(C)=C/COC(=O)CCCCCCCC(=O)OC/C=C(C)/C=C/C=C(C)/C=C/C2=C(C)CCCC2(C)C)C(C)(C)CCC1` [Di-retinyl azelate, di-retinyl azelate], the IC50 in data set [4] (setting [13]) and in data set [4] (setting [14]) was 15 µM in each case. In addition, the “potency in inhibiting cell proliferation (in words)” value in data set [4] is “significantly more potent than azelaic acid and salicylic acid”. The same molecule showed a CC50 in data set [5] of 100 µM. The CC50 at 72 h in [5] turned out to be 100 µM. The selectivity ratio in [5] (Safety factor (CD50/ID50)) is 6.6; in data set [5] (setting [15]) it was 6.6 to 10; in data set [5] (therapeutic safety margin) it was 6.6 to 10.

For the molecule `CCOC(=O)c1ccccc1OC(=O)CCCCCCCC(=O)Oc1ccccc1C(=O)OCC` [di(ethyl salicylate)azelate, Nonanedioic acid, di-[(2'-ethoxycarbonyl)phenyl]ester], the “improvement of lesions and hair growth” value was “After one week of treatment, there was a marked improvement in the appearance of all treated lesions; also recorded: hair seemed to regrow and the skin looked healthy. This improvement persisted throughout 14 days of treatment and observation” in data set [7]; “After one week of treatment, there was a marked improvement in the appearance of all treated lesions. Hair regrew and the skin looked healthy” in data set [7] (setting [16]). In addition, the “signs of skin irritation” value in data set [8] was “no signs of irritation”; in data set [8] (setting [16]), “no signs of skin irritation were observed”. The “sebum value (skin oiliness) after treatment” value in [9] was found to be 205 units. The IC50 in data set [4] (setting [13]) and in data set [4] (setting [14]) was 300 µM in each case. Besides, in [4], the “potency in inhibiting cell proliferation (in words)” value is “significantly more potent than azelaic acid and salicylic acid”. Besides, the “skin irritation in treated cats” value in data set [10] is given as “No skin irritation was noticed in any of the treated cats”. For the same molecule, in data set [10] (four cats), the “response of chin acne” value is “Three of the four cats responded to treatment within 10 days; also recorded: Three of the four cats responded to treatment within ten days”. The “response of furunculosis (eczema)” value in [10] (one cat) is given as “responded positively; also recorded: successfully treated”. Besides, the reduction of comedones entry in data set [11] (10% topical, once daily five weekdays for three weeks) is reported as “effective in the reduction of comedones; also recorded: All three treated ears showed a marked reduction of the comedones”. In addition, the “comedolytic effect compared with 0.025% Retin A Cream” value in [11] (10% topical, rabbit ear) is listed as “comparable to the effect of 0.025% Retin A Cream”. Besides, in data set [11] (10% topical, rabbit ear, comparison with Lee et al.), the “comedolytic effect compared with 20% azelaic acid preparation of the prior art” value is recorded as “superior to a 20% (1,060 mmole/ml) azelaic acid preparation”. Moreover, the “inflammatory response in treated area” value in [11] (topical, rabbit ear, Retin A at 0.025%) is recorded as “did not induce any inflammatory response in the treated area; also recorded: no inflammatory reaction”. For the same molecule, the “skin reaction / irritation” value in [12] was “did not irritate the skin; also recorded: no sign of any skin reaction”. In data set [5], the CC50 stood at 3 µM. Besides, in data set [5], the CC50 at 72 h was found to be 3000 µM. In addition, the selectivity ratio in data set [5] (Safety factor (CD50/ID50)) was 10; in data set [5] (setting [15]) it was 6.6 to 10; in data set [5] (therapeutic safety margin) it was 6.6 to 10.

Consider `O=C(O)c1ccccc1O` [Salicylic acid, o-hydroxybenzoic acid, reference compound], for which, in data set [4] (Keratinocyte, 72 h, read-out: IC50 (inhibitory concentration)), the IC50 is 1600 µM. For the same molecule, in [5], the CC50 at 72 h is 6000 µM and the selectivity ratio was 3.8.
